From PubChem BioAssay AID1963986 (Molecular Pharmacology Branch, DTP, NCI, 2024)

Test system: 171881-019-R-J1-PDC tumor spheroid viability
Assay: Anticancer human tumor 171881-019-R-J1-PDC patient-derived invasive breast carcinoma cell line growth inhibition [PI3K]
Conditions: spheroids with HUVEC and MSC; for IC50: curve of first compound; for viability, T/C: stronger effect = lower value
In short: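 Tumor cells were combined with HUVEC and MSCs into spheroids, then dosed with PI3K-inhibitor combinations over half-log ranges capped near clinical Cmax or 10 microM.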

[1] = second compound 0.0316 µM, first compound 0.000316 µM
[2] = second compound 0.0316 µM, first compound 0.001 µM
[3] = second compound 0.0316 µM, first compound 0.00316 µM
[4] = second compound 0.0316 µM, first compound 0.01 µM
[5] = second compound 0.0316 µM, first compound 0.0316 µM
[6] = second compound 0.0316 µM, first compound 0.1 µM
[7] = second compound 0.1 µM, first compound 0.000316 µM
[8] = second compound 0.1 µM, first compound 0.001 µM
[9] = second compound 0.1 µM, first compound 0.00316 µM
[10] = second compound 0.1 µM, first compound 0.01 µM
[11] = second compound 0.1 µM, first compound 0.0316 µM
[12] = second compound 0.1 µM, first compound 0.1 µM
[13] = second compound 0.316 µM, first compound 0.000316 µM
[14] = second compound 0.316 µM, first compound 0.001 µM
[15] = second compound 0.316 µM, first compound 0.00316 µM
[16] = second compound 0.316 µM, first compound 0.01 µM
[17] = second compound 0.316 µM, first compound 0.0316 µM
[18] = second compound 0.316 µM, first compound 0.1 µM
[19] = second compound 1 µM, first compound 0.000316 µM
[20] = second compound 1 µM, first compound 0.001 µM
[21] = second compound 1 µM, first compound 0.00316 µM
[22] = second compound 1 µM, first compound 0.01 µM
[23] = second compound 1 µM, first compound 0.0316 µM
[24] = second compound 1 µM, first compound 0.1 µM
[25] = second compound 3.16 µM, first compound 0.000316 µM
[26] = second compound 3.16 µM, first compound 0.001 µM
[27] = second compound 3.16 µM, first compound 0.00316 µM
[28] = second compound 3.16 µM, first compound 0.01 µM
[29] = second compound 3.16 µM, first compound 0.0316 µM
[30] = second compound 3.16 µM, first compound 0.1 µM
[31] = second compound 10 µM, first compound 0.000316 µM
[32] = second compound 10 µM, first compound 0.001 µM
[33] = second compound 10 µM, first compound 0.00316 µM
[34] = second compound 10 µM, first compound 0.01 µM
[35] = second compound 10 µM, first compound 0.0316 µM
[36] = second compound 10 µM, first compound 0.1 µM
[37] = second compound 0.0316 µM, first compound 0.316 µM
[38] = second compound 0.0316 µM, first compound 1 µM
[39] = second compound 0.0316 µM, first compound 3.16 µM
[40] = second compound 0.0316 µM, first compound 10 µM
[41] = second compound 0.1 µM, first compound 0.316 µM
[42] = second compound 0.1 µM, first compound 1 µM
[43] = second compound 0.1 µM, first compound 3.16 µM
[44] = second compound 0.1 µM, first compound 10 µM
[45] = second compound 0.316 µM, first compound 0.316 µM
[46] = second compound 0.316 µM, first compound 1 µM
[47] = second compound 0.316 µM, first compound 3.16 µM
[48] = second compound 0.316 µM, first compound 10 µM
[49] = second compound 1 µM, first compound 0.316 µM
[50] = second compound 1 µM, first compound 1 µM
[51] = second compound 1 µM, first compound 3.16 µM
[52] = second compound 1 µM, first compound 10 µM
[53] = second compound 3.16 µM, first compound 0.316 µM
[54] = second compound 3.16 µM, first compound 1 µM
[55] = second compound 3.16 µM, first compound 3.16 µM
[56] = second compound 3.16 µM, first compound 10 µM
[57] = second compound 10 µM, first compound 0.316 µM
[58] = second compound 10 µM, first compound 1 µM
[59] = second compound 10 µM, first compound 3.16 µM
[60] = second compound 10 µM, first compound 10 µM
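Further: spheroids exposed to compound for 7 days before viability read.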
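Wherever viability, T/C is given: 100% = DMSO vehicle-treated spheroids.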

`CC(=O)c1c(C)c2cnc(Nc3ccc(N4CCNCC4)cn3)nc2n(C2CCCC2)c1=O` + Cc1nc(NC(=O)N2CCCC2C(N)=O)sc1-c1ccnc(C(C)(C)C(F)(F)F)c1 was tested, and the IC50 (second compound 0.0316 µM) was greater than 100 nM, the IC50 (second compound 0.1 µM) was greater than 100 nM and the IC50 (second compound 0.316 µM) was greater than 100 nM. For the same molecule, the IC50 (second compound 1 µM) was less than 0.316 nM, the IC50 (second compound 3.16 µM) was less than 0.316 nM and the IC50 (second compound 10 µM) was less than 0.316 nM. It also gave a viability, T/C [1] of 106%, a viability, T/C [2] of 96.3% and a viability, T/C [3] of 91.2%. The viability, T/C [4] was 101%, the viability, T/C [5] was 105% and the viability, T/C [6] was 88.6%. For the same molecule, the viability, T/C [7] was 78.9%, the viability, T/C [8] was 79% and the viability, T/C [9] was 84.8%. For the same molecule, the viability, T/C [10] was 88.9%, the viability, T/C [11] was 88.3% and the viability, T/C [12] was 82.6%. The viability, T/C [13] was 57.9%, the viability, T/C [14] was 61.5% and the viability, T/C [15] was 54.3%. It also gave a viability, T/C [16] of 63.2%, a viability, T/C [17] of 63.1% and a viability, T/C [18] of 63.2%. For the same molecule, the viability, T/C [19] was 33%, the viability, T/C [20] was 33.7% and the viability, T/C [21] was 37.3%. It also gave a viability, T/C [22] of 37.6%, a viability, T/C [23] of 43.8% and a viability, T/C [24] of 38.8%. It also gave a viability, T/C [25] of 14.1%, a viability, T/C [26] of 14.3% and a viability, T/C [27] of 16.5%. It also gave a viability, T/C [28] of 17.3%, a viability, T/C [29] of 18% and a viability, T/C [30] of 18.4%. It also gave a viability, T/C [31] of 4.32%, a viability, T/C [32] of 3.84% and a viability, T/C [33] of 4.16%. For the same molecule, the viability, T/C [34] was 4.4%, the viability, T/C [35] was 5.31% and the viability, T/C [36] was 4.87%.

Molecule `CC(C)n1nc(-c2ccc3oc(N)nc3c2)c2c(N)ncnc21` + Cc1nc(NC(=O)N2CCCC2C(N)=O)sc1-c1ccnc(C(C)(C)C(F)(F)F)c1 has an IC50 (second compound 0.0316 µM) of 6.6 nM, an IC50 (second compound 0.1 µM) of 4.2 nM and an IC50 (second compound 0.316 µM) of 0.378 nM. It also gave an IC50 (second compound 1 µM) of less than 0.316 nM, an IC50 (second compound 3.16 µM) of less than 0.316 nM and an IC50 (second compound 10 µM) of less than 0.316 nM. The viability, T/C [1] was 93.8%, the viability, T/C [2] was 78% and the viability, T/C [3] was 63.1%. For the same molecule, the viability, T/C [4] was 46.8%, the viability, T/C [5] was 16.1% and the viability, T/C [6] was 3.37%. For the same molecule, the viability, T/C [7] was 79.6%, the viability, T/C [8] was 74.2% and the viability, T/C [9] was 52.7%. It also gave a viability, T/C [10] of 35.6%, a viability, T/C [11] of 13.1% and a viability, T/C [12] of 4.36%. For the same molecule, the viability, T/C [13] was 52%, the viability, T/C [14] was 44% and the viability, T/C [15] was 38%. It also gave a viability, T/C [16] of 22.4%, a viability, T/C [17] of 8.1% and a viability, T/C [18] of 2.79%. For the same molecule, the viability, T/C [19] was 31.4%, the viability, T/C [20] was 26.7% and the viability, T/C [21] was 18.5%. It also gave a viability, T/C [22] of 10.9%, a viability, T/C [23] of 4.74% and a viability, T/C [24] of 2.58%. It also gave a viability, T/C [25] of 11.9%, a viability, T/C [26] of 11.9% and a viability, T/C [27] of 8.19%. It also gave a viability, T/C [28] of 5.31%, a viability, T/C [29] of 3.23% and a viability, T/C [30] of 2.15%. It also gave a viability, T/C [31] of 3.18%, a viability, T/C [32] of 3.44% and a viability, T/C [33] of 2.64%. It also gave a viability, T/C [34] of 2.7%, a viability, T/C [35] of 2.05% and a viability, T/C [36] of 1.46%.

For `CCCS(=O)(=O)Nc1ccc(F)c(C(=O)c2c[nH]c3ncc(-c4ccc(Cl)cc4)cc23)c1F` + Cc1nc(NC(=O)N2CCCC2C(N)=O)sc1-c1ccnc(C(C)(C)C(F)(F)F)c1, the IC50 (second compound 0.0316 µM) was 5560 nM, the IC50 (second compound 0.1 µM) was 5710 nM and the IC50 (second compound 0.316 µM) was 4720 nM. It also gave an IC50 (second compound 1 µM) of less than 31.6 nM, an IC50 (second compound 3.16 µM) of less than 31.6 nM and an IC50 (second compound 10 µM) of less than 31.6 nM. The viability, T/C [5] was 97.5%, the viability, T/C [6] was 91% and the viability, T/C [37] was 97.2%. For the same molecule, the viability, T/C [38] was 92.2%, the viability, T/C [39] was 86.9% and the viability, T/C [40] was 11.7%. It also gave a viability, T/C [11] of 92.4%, a viability, T/C [12] of 99.3% and a viability, T/C [41] of 99.3%. It also gave a viability, T/C [42] of 97.5%, a viability, T/C [43] of 91.8% and a viability, T/C [44] of 10.3%. For the same molecule, the viability, T/C [17] was 57.6%, the viability, T/C [18] was 60.3% and the viability, T/C [45] was 73.7%. It also gave a viability, T/C [46] of 87.1%, a viability, T/C [47] of 82.2% and a viability, T/C [48] of 8.31%. For the same molecule, the viability, T/C [23] was 32.2%, the viability, T/C [24] was 36.7% and the viability, T/C [49] was 40.8%. It also gave a viability, T/C [50] of 49%, a viability, T/C [51] of 50.2% and a viability, T/C [52] of 5.09%. For the same molecule, the viability, T/C [29] was 15.2%, the viability, T/C [30] was 16.1% and the viability, T/C [53] was 18.9%. For the same molecule, the viability, T/C [54] was 21.9%, the viability, T/C [55] was 23.4% and the viability, T/C [56] was 2.52%. For the same molecule, the viability, T/C [35] was 3.53%, the viability, T/C [36] was 3.46% and the viability, T/C [57] was 3.9%. It also gave a viability, T/C [58] of 5.16%, a viability, T/C [59] of 5.53% and a viability, T/C [60] of 2.11%.

With `CNC(=O)c1ccc(N2C(=S)N(c3ccc(C#N)c(C(F)(F)F)c3)C(=O)C2(C)C)cc1F` + Cc1nc(NC(=O)N2CCCC2C(N)=O)sc1-c1ccnc(C(C)(C)C(F)(F)F)c1 the IC50 (second compound 0.0316 µM) was greater than 10000 nM, the IC50 (second compound 0.1 µM) was greater than 10000 nM and the IC50 (second compound 0.316 µM) was 4660 nM. For the same molecule, the IC50 (second compound 1 µM) was less than 31.6 nM, the IC50 (second compound 3.16 µM) was less than 31.6 nM and the IC50 (second compound 10 µM) was less than 31.6 nM. It also gave a viability, T/C [5] of 90.4%, a viability, T/C [6] of 81.5% and a viability, T/C [37] of 84.4%. It also gave a viability, T/C [38] of 87.7%, a viability, T/C [39] of 86% and a viability, T/C [40] of 69.7%. The viability, T/C [11] was 79%, the viability, T/C [12] was 77% and the viability, T/C [41] was 82.9%. For the same molecule, the viability, T/C [42] was 66.4%, the viability, T/C [43] was 74.6% and the viability, T/C [44] was 66.1%. The viability, T/C [17] was 58.6%, the viability, T/C [18] was 50.2% and the viability, T/C [45] was 50.3%. The viability, T/C [46] was 52.5%, the viability, T/C [47] was 57.2% and the viability, T/C [48] was 45.1%. For the same molecule, the viability, T/C [23] was 31.2%, the viability, T/C [24] was 31.1% and the viability, T/C [49] was 31.8%. The viability, T/C [50] was 30.9%, the viability, T/C [51] was 32.7% and the viability, T/C [52] was 27.7%. It also gave a viability, T/C [29] of 13.2%, a viability, T/C [30] of 12.7% and a viability, T/C [53] of 13.1%. The viability, T/C [54] was 12.6%, the viability, T/C [55] was 12.5% and the viability, T/C [56] was 11.1%. It also gave a viability, T/C [35] of 3.32%, a viability, T/C [36] of 3.53% and a viability, T/C [57] of 3.59%. For the same molecule, the viability, T/C [58] was 3.51%, the viability, T/C [59] was 3.82% and the viability, T/C [60] was 3.48%.
